# Laboratory results published in the supplement of paper PMC13380429.
# ± gives the standard deviation of the averaged measurements.
# Key:
# Conditions in all cases: 72 h
# HepG2 [1] = test: cell viability relative to DMSO; higher = less toxic
# U2OS [2] = test: as above
# Caco-2 [3] = test: as above
# Vero E6 [4] = test: as above
# Calu-3 [5] = test: as above
# HepG2 [6] = test: relative viability EC50 (midpoint between 100% and the lowest measured viability); higher = less toxic
# U2OS [7] = test: as above
# Caco-2 [8] = test: as above
# Vero E6 [9] = test: as above
# Calu-3 [10] = test: as above
# HepG2 [11] = test: drug sensitivity score (DSS) for viability; higher = more toxic; extreme values may be limits of the assay
# U2OS [12] = test: as above
# Caco-2 [13] = test: as above
# Vero E6 [14] = test: as above
# Calu-3 [15] = test: as above
SMILES,cell viability (HepG2 [1]; 1 nM) [%],cell viability (HepG2 [1]; 10 nM) [%],cell viability (HepG2 [1]; 100 nM) [%],cell viability (HepG2 [1]; 1000 nM) [%],cell viability (HepG2 [1]; 10000 nM) [%],cell viability (U2OS [2]; 1 nM) [%],cell viability (U2OS [2]; 10 nM) [%],cell viability (U2OS [2]; 100 nM) [%],cell viability (U2OS [2]; 1000 nM) [%],cell viability (U2OS [2]; 10000 nM) [%],cell viability (Caco-2 [3]; 1 nM) [%],cell viability (Caco-2 [3]; 10 nM) [%],cell viability (Caco-2 [3]; 100 nM) [%],cell viability (Caco-2 [3]; 1000 nM) [%],cell viability (Caco-2 [3]; 10000 nM) [%],cell viability (Vero E6 [4]; 1 nM) [%],cell viability (Vero E6 [4]; 10 nM) [%],cell viability (Vero E6 [4]; 100 nM) [%],cell viability (Vero E6 [4]; 1000 nM) [%],cell viability (Vero E6 [4]; 10000 nM) [%],cell viability (Calu-3 [5]; 1 nM) [%],cell viability (Calu-3 [5]; 10 nM) [%],cell viability (Calu-3 [5]; 100 nM) [%],cell viability (Calu-3 [5]; 1000 nM) [%],cell viability (Calu-3 [5]; 10000 nM) [%],relative viability EC50 (HepG2 [6]) [µM],relative viability EC50 (U2OS [7]) [µM],relative viability EC50 (Caco-2 [8]) [µM],relative viability EC50 (Vero E6 [9]) [µM],relative viability EC50 (Calu-3 [10]) [µM],drug sensitivity score (HepG2 [11]),drug sensitivity score (U2OS [12]),drug sensitivity score (Caco-2 [13]),drug sensitivity score (Vero E6 [14]),drug sensitivity score (Calu-3 [15])
CN1CCC2=C(C1)C(c1ccccc1)c1ccccc12 (stereo not given) [phenindamine],97,88.6,98.2,94.3,88.9,94,100,93.8,98,92.6,97.4,95.1,99.1,102,89,98.9,96.3,97.4,99.7,97.2,96.7,107,98.2,106,99.1,> 10,> 10,> 10,> 10,> 10,0,0,0,0,0
COc1ccc(C(=O)Nc2c(Cl)cncc2Cl)cc1OC1CCCC1 [piclamilast],90.4,86,92.7,102,101,98.2,95.7,103,98.3,94.8,96.6,97.3,102,107,98,98.3,95,92.4,91.4,82,97.5,89.4,102,99.9,87.5,> 10,> 10,> 10,> 10,> 10,0,0,0,0.8,0
CN1CCC(=C2c3ccccc3Sc3ccccc32)CC1 [pimethixene],108,98.9,121,84.7,92.1,103,97.8,102,99,95.5,100,89.7,96.9,101,102,103,101,106,105,98.4,103,105,100,100,101,> 10,> 10,> 10,> 10,> 10,1.2,0,0,0,0
CC[N+]1(C)CCCC(OC(=O)C(O)(c2ccccc2)c2ccccc2)C1 (stereo not given) [pipenzolate],89.3,102,97.7,99.8,94.3,100,95,95.4,93.3,97.4,102,100,103,95.2,95.7,105,101,105,103,96.7,96.3,95.5,93.3,94.6,91.8,> 10,> 10,> 10,> 10,> 10,0,0,0,0,0
Clc1ccc(CCCOCCCN2CCCCC2)cc1 [pitolisant],93.8,91.4,96,94.6,81.8,104,99.7,100,97.7,96.8,99.4,93.6,96.4,89.7,89.8,95,94.9,95.6,93.2,89.4,90.7,106,92.3,90.6,94.8,> 10,> 10,> 10,> 10,> 10,0.3,0,0,0,0
C[C@]12C=CC(=O)C=C1CC[C@@H]1[C@@H]2[C@@H](O)C[C@@]2(C)[C@H]1CC[C@]2(O)C(=O)COC(=O)CCC(=O)O [prednisolone-hemisuccinate],112,92.5,91.7,98.5,108,97.5,103,96,100,93.6,94.7,103,93.3,91.3,79.8,99.3,99.9,95.8,90,98.6,98.6,102,97.2,102,88.9,> 10,> 10,> 10,> 10,> 10,0,0,1.1,0,0
Oc1cc(O)c2c(c1)O[C@H](c1ccc(O)c(O)c1)[C@H](O)[C@H]2c1c(O)cc(O)c2c1O[C@H](c1ccc(O)c(O)c1)[C@H](O)C2 [procyanidin-B-2],98.5,100,96.8,99.3,94.7,103,99.9,106,99.5,104,106,102,102,98.7,105,97,98.2,91.8,101,93.4,112,95.6,100,93.1,109,> 10,> 10,> 10,> 10,> 10,0,0,0,0,0
CC(C)NCC(O)COc1cccc2ccccc12 (stereo not given) [propranolol],92.9 ± 6.3,101 ± 2.8,95.6 ± 7,102 ± 6,102 ± 1.6,96.1 ± 3.6,95.2 ± 2.7,97.2 ± 7.5,95.6 ± 2.3,96.5 ± 7.6,101 ± 2.7,96 ± 3.8,101 ± 3,95 ± 9.6,100 ± 4.5,94.3 ± 3.7,98.95 ± 0.49,95.3 ± 4,95.1 ± 0.71,99.3 ± 3.2,95.3 ± 3.9,96.7 ± 2.8,99.4 ± 6,89.6 ± 5,92.9 ± 1.8,> 10,> 10,> 10,> 10,> 10,0,0.0333 ± 0.058,0,0,0.467 ± 0.81
c1ccc(COCCCc2c[nH]cn2)cc1 [proxyfan],97.9,108,97.7,103,107,99.6,97.8,102,97.5,101,96.4,92.9,93.5,91.6,95.6,96.9,95.8,95.9,99,93.3,101,101,98.4,103,105,> 10,> 10,> 10,> 10,> 10,0,0,0,0,0
NC[C@H]1O[C@H](O[C@H]2[C@H](O[C@@H]3O[C@H](CO)[C@@H](O)[C@H]3O)[C@@H](O)[C@H](N)C[C@@H]2N)[C@H](N)[C@@H](O)[C@@H]1O [ribostamycin-sulfate],99.2 ± 0.85,106.8 ± 0.21,97 ± 5.2,102 ± 4.5,93.6 ± 8.2,96.8 ± 1.1,98.8 ± 2.2,96.3 ± 2.3,101 ± 4.4,98.5 ± 1.5,94.5 ± 5,97.1 ± 2.4,87.5 ± 12,93 ± 2,88.5 ± 9.1,103 ± 8.4,94 ± 5.7,100 ± 4.7,97.2 ± 2.3,102 ± 2.2,93.8 ± 8.4,97.7 ± 13,90.5 ± 5,104 ± 9.5,89.6 ± 0.99,> 10,> 10,> 10,> 10,> 10,0.05 ± 0.071,0,0.9 ± 1.3,0,0
COc1ccc(NS(=O)(=O)c2ccc(/N=N/c3ccc(O)c(C(=O)O)c3)cc2)nn1 [salazodine],99.6,97.7,92.5,95.1,96.9,101,98,98.6,96.2,102,111,89.4,97.4,95.4,93.7,105,108,95.7,101,101,98,108,102,116,111,> 10,> 10,> 10,> 10,> 10,0,0,0,0,0
Nc1ncnc2c1ncn2[C@@H]1O[C@H](C[C@@H](N)CC[C@H](N)C(=O)O)[C@@H](O)[C@H]1O [sinefungin],115,96.2,113,89.9,97.1,96.6,98.1,97.7,101,96.2,86.7,95.5,91.4,108,106,112,94.3,102,104,99.5,104,104,100,94.8,93.5,> 10,> 10,> 10,> 10,> 10,0,0,0,0,0
O=C(O)[C@H](O)[C@@H](O)[C@H](O)[C@H](O)CO [sodium-gluconate],79.7,108,94.3,92.7,91,96.9,97,98.2,99.8,103,104,101,104,113,92.2,96.9,107,102,93.5,105,106,96.6,108,109,105,> 10,> 10,> 10,> 10,> 10,0,0,0,0,0
CC(C(=O)O)c1ccc(C(=O)c2cccs2)cc1 (stereo not given) [suprofen],102,93.2,92.9,86.8,85.3,101,93.5,97.4,97,103,105,98,101,98,90.8,97.7,97.9,95.4,102,98.7,97.9,103,89,86.6,89.8,> 10,> 10,> 10,> 10,> 10,1.1,0,0,0,1.6
